Data taken from US20210299079A1, “MONOMETHYL FUMARATE-CARRIER CONJUGATES AND METHODS OF THEIR USE” (Flagship Pioneering Innovations V, Inc., priority 2018, published 2021).
Structures can show the parent of a compound that is named as a salt.

How the values were obtained:
[1] = In vitro Colonic Material Stability Assay; format: in vitro ADME; settings: colonic material slurry in YCFAC media, anaerobic, 1 or 10 μM
In short: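 Anaerobically, a colonic material slurry (15% w/v) was inoculated into YCFAC or other suitable media. Compounds were added at 1 or 10 μM final. Samples taken at 0–2880 min were quenched with acetonitrile containing internal standard and analysed by LC/MS.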

[2] = Stability of conjugates in Simulated Intestinal Fluid (SIF); format: in vitro ADME; settings: SIF pH 6.7 with pancreatin, 37° C., 1 μM compound
In short: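 Compounds at 1 μM in fresh simulated intestinal fluid: FaSSIF powder in pH 6.7 phosphate buffer with pancreatin. Agitated at 37 °C; aliquots taken at T0 and regular intervals, quenched with 1 volume acetonitrile. Degradation rates determined by LC/MS.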

[3] = In Vitro Biotransformation and Detection of Monomethyl Fumarate Assay; format: in vitro ADME; settings: FaSSIF with pancreatin pH 6.5, 100 μM compound, 0 h and 2 h, UHPLC-MSMS
Description: Stock solution of compound 2 was prepared at 10 mM in DMSO. FaSSIF was made by mixing sodium taurocholate (3.0 mM) Lecithin (0.75 mM), and pancreatin (10 mg/mL) in prepared solution of sodium phosphate monobasic (28.4 mM), sodium hydroxide (8.7 mM), sodium chloride (105.9 mM), pH 6.5. Compound 2, was added to FaSSIF to final concentration of 100 μM. Release of monomethyl fumaric acid (MMF) was monitored via UHPLC-MSMS and comparing the retention time and corresponding fragmentation of released MMF to retention time and fragmentation of a neat solution of MMF that was analyzed separately with the same method described below. Release of MMF was measured at 0 h and 2 h time points. At both time points samples were centrifuged at 14000 rpm for 10 minutes at 4° C. Supernatants were then transferred to HPLC vials and analyzed immediately. The results of this assay are illustrated in FIG. 1.

[4] = Stability of conjugates in Simulated Gastric Fluid (SGF); format: in vitro ADME; settings: SGF pH 1.6 with pepsin, 37° C., 1 μM compound
In short: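 Compound at 1 μM (from 1 mM DMSO stock) in pH 1.6 NaCl medium with FaSSIF powder and 0.1 mg/mL pepsin, mixed at 37° C. Aliquots quenched with equal volume acetonitrile at T0 and regular intervals; LC/MS gives degradation rate.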

AhR = biological target: T1, AhR (Homo sapiens, UniProt P35869); test: AhR Activation in Caco-2 Cells Through CYP1A1 mRNA Expression; settings: overnight
T1 sequence (P35869 11-848): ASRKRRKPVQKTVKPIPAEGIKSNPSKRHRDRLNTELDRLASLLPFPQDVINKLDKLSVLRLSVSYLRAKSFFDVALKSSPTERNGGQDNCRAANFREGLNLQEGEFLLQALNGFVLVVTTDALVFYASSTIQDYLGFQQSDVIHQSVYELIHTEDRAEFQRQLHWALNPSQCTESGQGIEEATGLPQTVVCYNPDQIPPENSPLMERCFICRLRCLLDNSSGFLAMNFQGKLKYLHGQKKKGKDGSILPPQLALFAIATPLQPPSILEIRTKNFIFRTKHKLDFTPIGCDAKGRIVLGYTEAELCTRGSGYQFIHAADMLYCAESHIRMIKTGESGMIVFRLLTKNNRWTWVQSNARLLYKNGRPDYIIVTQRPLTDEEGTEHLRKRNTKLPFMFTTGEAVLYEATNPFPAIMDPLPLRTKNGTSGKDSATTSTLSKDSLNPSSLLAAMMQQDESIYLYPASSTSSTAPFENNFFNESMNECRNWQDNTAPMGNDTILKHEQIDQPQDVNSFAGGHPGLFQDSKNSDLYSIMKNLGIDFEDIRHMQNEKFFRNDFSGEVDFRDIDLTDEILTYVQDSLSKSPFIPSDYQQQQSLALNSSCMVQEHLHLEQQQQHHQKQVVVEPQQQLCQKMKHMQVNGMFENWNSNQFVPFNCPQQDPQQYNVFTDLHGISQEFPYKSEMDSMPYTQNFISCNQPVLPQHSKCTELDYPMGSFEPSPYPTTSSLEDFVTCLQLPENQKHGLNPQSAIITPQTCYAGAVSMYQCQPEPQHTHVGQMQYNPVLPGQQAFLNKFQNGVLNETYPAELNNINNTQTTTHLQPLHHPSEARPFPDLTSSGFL
Description: Caco-2 cells from American Type Culture Collection (ATCC) were plated in a sterile tissue culture treated 96-well plate (ThermoFisher) at 8.0×10^5 cells per well, and grown overnight at 37° C., 5% CO2 in DMEM complete (Gibco) in order to achieve confluence. After the incubation medium was aspirated off of the Caco-2 monolayers, tissues were then washed with 200 μL of warmed PBS solution, and subsequently 190 μL of pre-warmed growth medium was added to each well. Compounds of interest were diluted at a 20× concentration in growth medium containing 2% DMSO, and 10 μL of compound solutions were added to respective wells in triplicate. Compounds where incubated overnight at 37° C., 5% CO2. 2-(1′H-indole-3′-carbonyl)-thiazole-4-carboxylic acid methyl ester (ITE) was used as the positive control for AhR activation at 1 and 100 μM concentrations. At the end of the incubation, medium was aspirated off of the Caco-2 cells, and washed with 100 μL of cold PBS solution. RNA was extracted via the TaqMan™ Gene Expression Cells-to-CT™ Kit (ThermoFisher) according to the manufacturer's protocol. The QuantStudio 6 Flex (Applied Biosciences) was used to analyze mRNA levels of CYP1A1 using GAPDH as the endogenous control. TaqMan™ probe sets for both genes were acquired from ThermoFisher. Samples were run in triplicate and data was analyzed using the QuantStudio software and reported as linear (Table 6) and log 2(ΔΔCT) values. Statistical analysis was performed using a two-tailed t-test comparing CYP1A1 levels in the presence of each individual compound to the vehicle negative control.

[5] = male, Sprague Dawley, rat, in vivo, po
Description: The amount of compound dosed was normalized to provide approximately equimolar amounts of monomethylfumarate. Approximately 150 μL whole blood samples were collected at 15 and 30 min; and 1, 2, 4, 8, and 24 h post-dosing from the jugular or tail vein. 100 μL of samples were added to K2EDTA tubes pre-filled with 300 μL of 100 mM tiopronin in 100 mM ammonium bicarbonate (pH 9.0). Samples were vortex-mixed for approximately 5 min at ambient temperature in order to trap free fractions of monomethyl fumarate.

MIP-1α = test: Neutrophil Chemokine Production Assay: MIP-1α; format: cell-based; settings: human neutrophils, 12 h
In short: (§1)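 Neutrophils were isolated from human blood by Histopaque-1077 separation and RBC lysis, then plated at 2.0×10^5 cells/well in RPMI complete. Cells were stimulated with LPS (10 μL of a 2 μg/mL solution) for 12 h at 37 °C. Supernatant chemokines were measured by Luminex multiplex, averaging three data points from two donors.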

naïve CD4+ T cells = test: Human Regulatory T Cell Differentiation Assay; format: cell-based; settings: 6 days; for Treg induction % DMSO: TGF-β; for Cell viability % DMSO: viability dye
In short: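 Naïve CD4+ T cells from healthy-donor PBMCs cultured 6 days in OpTmizer medium with 5 ng/ml TGF-β, 100 U/ml IL-2 and CD3/CD28/CD2 activator, with or without compound. Tregs (live CD4+CD3+CD25+FOXP3+, lineage-negative) measured by flow cytometry and expressed as % of total CD4+ T cells.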

Caco-2 colonocytes = test: Human Caco-2 Barrier Integrity Assay, Study 1; format: cell-based; settings: Caco-2, + cytokines (TNFα, IFNγ, IL-1β), 48 hours
Description: Caco-2 colonocytes were maintained at 37° C. and 5% CO2 in Dulbecco's Modified Eagle Medium (DMEM) and supplemented with 10% FBS, 1% NEAA, 1% penicillin-streptomycin. At 70-80% confluency, cells were trypsinized and seeded in 0.4 cm^2 transwell collagen I coated membranes with supplemented DMEM in both apical and basolateral compartments. […] After 48 hours, TEER readings were taken again and viability was measured by CellTiter 96® AQueous One Solution Cell Proliferation Assay (Promega).

IL-8 = test: Neutrophil Chemokine Production Assay: IL-8; format: cell-based; settings: human neutrophils, 12 h
In short: as §1

MIP-1β = test: Neutrophil Chemokine Production Assay: MIP-1β; format: cell-based; settings: human neutrophils, 12 h
In short: as §1

CCC(=O)O[C@@H]1[C@@H](OC(=O)CC)[C@H](C)O[C@@H](OC(=O)/C=C/C(=O)OC)[C@@H]1OC(=O)CC [Compound 2, Methyl ((2S,3R,4R,5S,6S)-6-methyl-3,4,5-tris(propionyloxy)tetrahydro-2H-pyran-2-yl) fumarate]
Assay 3 (% Remaining at 24 h) [1]: C (C: >75% of the tested compound remaining) | Assay 2 (SIF) (% @ Remaining 4 hours) [2]: B (B: 25-75% of the tested compound remaining) | Release of monomethyl fumaric acid (MMF) [3]: actively released | Assay 1 (SGF) (% Remaining @ 1 hour) [4]: C (C: >75% of the tested compound remaining)

c1ccc2[nH]ccc2c1 [indole]
Average CYP1A1 mRNA levels (AhR; Conc. 1000.0 μM): + (+ = >2-fold Vehicle)

CC(O)CCO (stereo not drawn) [butanediol]
Average CYP1A1 mRNA levels (AhR; Conc. 500.0 μM): − (− = <2-fold Vehicle)

COC(=O)/C=C/C(=O)OCCN1C(=O)CCC1=O [Diroximel Fumarate, diroximel fumarate]
AUClast [5]: 9381 ng·h/mL | Cmax [5]: 17251 ng/mL | Tmax [5]: 15 min

O=C(O[C@@H]1Cc2c(O)cc(O)cc2O[C@@H]1c1cc(O)c(O)c(O)c1)c1cc(O)c(O)c(O)c1 [epigallocatechin gallate]
% MIP-1α (Vehicle + LPS = 100%) (MIP-1α; Conc. 0.1 μM): − (− = >90% Vehicle) | % MIP-1α (Vehicle + LPS = 100%) (MIP-1α; Conc. 1.0 μM): − (− = >90% Vehicle) | Treg induction % DMSO (naïve CD4+ T cells; IL-2, 100 nM): = (90% > <110%: =) | Treg induction % DMSO (naïve CD4+ T cells; IL-2, 1 μM): = (90% > <110%: =) | Cell viability % DMSO (naïve CD4+ T cells; 100 nM): = (90% > <110%: =) | Cell viability % DMSO (naïve CD4+ T cells; 1 μM): = (90% > <110%: =) | % Change in TEER from DMSO (Caco-2 colonocytes; 100 nM): − (<125%: −) | % Change in TEER from DMSO (Caco-2 colonocytes; 1 μM): − (<125%: −) | Average CYP1A1 mRNA levels (AhR; Conc. 0.1 μM): − (− = <2-fold Vehicle) | Average CYP1A1 mRNA levels (AhR; Conc. 1.0 μM): − (− = <2-fold Vehicle) | % IL-8 (Vehicle + LPS = 100%) (IL-8; Conc. 0.1 μM): − (− = >90% Vehicle) | % IL-8 (Vehicle + LPS = 100%) (IL-8; Conc. 1.0 μM): − (− = >90% Vehicle) | % MIP-1β (DMSO + LPS = 100%) (MIP-1β; Conc. 0.1 μM): − (− = >90% Vehicle) | % MIP-1β (DMSO + LPS = 100%) (MIP-1β; Conc. 1.0 μM): − (− = >90% Vehicle)

COC(=O)c1csc(C(=O)c2c[nH]c3ccccc23)n1 [ITE, 2-(1′H-indole-3′-carbonyl)-thiazole-4-carboxylic acid methyl ester, reference compound]
Average CYP1A1 mRNA levels (AhR; Conc. 1.0 μM): +++ (+++ = >10-fold Vehicle)
